Laboratory results published in patent publication US6069254A, “Carboxamide derivatives of piperidine for the treatment of thrombosis disorders” (Ortho Pharmaceutical Corp., priority 1997, dated 2000).
Counter-ions that a name gives are not always drawn. Like-named read-outs stand apart in the source and are kept apart here.

Tests used:
GPIIb/IIIa [1] = target: T1, GPIIb/IIIa (Homo sapiens, UniProt P05106+P08514); assay: In Vitro Solid Phase Purified Glycoprotein IIb/IIIa Binding Assay (fibrinogen binding)
Description: In Vitro Solid Phase Purified Glycoprotein IIB/IIIA Binding Assay
The plate is covered and incubated overnight at 4° C. The GPIIb/IIIa solution is discarded and 150 μl of 5% BSA is added and incubated at RT for 1-3 h. The plate is washed extensively with modified Tyrodes buffer. Biotinylated fibrinogen (25 μl/well) at 2×final concentration is added to the wells that contain the test compounds (25 μl/well). The plate is covered and incubated at RT for 2-4 h. Twenty minutes prior to incubation completion, one drop of Reagent A (Vecta Stain ABC Horse Radish Peroxidase kit, Vector Laboratories, Inc.) and one drop Reagent B are added with mixing to 5 mL modified Tyrodes buffer mix and let stand. The ligand solution is discarded and the plate washed (5×200 μl/well) with modified Tyrodes buffer. Vecta Stain HRP-Biotin-Avidin reagent (50 μl/well, as prepared above) is added and incubated at RT for 15 min. The Vecta Stain solution is discarded and the wells washed ([…]) with modified Tyrodes buffer. Developing buffer (10 mL of 50 mM citrate/phosphate buffer @ pH 5.3, 6 mg Q-phenylenediamine, 6 μl 30% H2 O2; 50 μl/well) is added and incubated at RT for 3-5 min, and then 2N H2 SO4 (50 μl/well) is added. The absorbance is read at 490 nm.

[2] = system: gel-filtered platelets (thrombin-induced aggregation); assay: In Vitro Inhibition of Thrombin-Induced Gel-Filtered Platelet Aggregation Assay; assay type: cell-based; settings: Homo sapiens; for inhibition at 50 µM: read-out: Platelet Aggregation % Inh. (50 μM); for IC50: read-out: Platelet Aggregation IC50
Description: In Vitro Inhibition of Thrombin-Induced Gel-Filtered Platelet Aggregation Assay
The percentage of platelet aggregation is calculated as an increase in light transmission of compound-treated platelet concentrate vs. control-treated platelet concentrate. Human blood is obtained from drug free, normal donors into tubes containing 0.13M sodium citrate. Platelet rich plasma (PRP) is collected by centrifugation of whole blood at 200×g for 10 min at 25° C. The PRP (5 mL) is gel filtered through Sepharose 2B (bed volume 50 mL), and the platelet count is adjusted to 2×10^7 platelets per sample. The following constituents are added to a siliconized cuvette: concentrated platelet filtrate and Tyrode's buffer (0.14M NaCl, 0.0027M KCl, 0.012M NaHCO3,0.76 mM Na2 HPO4, 0.0055M glucose, 2 mg/mL BSA and 5.0 mM HEPES @ pH 7.4) in an amount equal to 350 μl, 50 μl of 20 mM calcium and 50 μl of the test compound. Aggregation is monitored in a BIODATA aggregometer for the 3 min following the addition of agonist (thrombin 50 μl of 1 unit/mL).

[3] = system: collagen or ADP-induced ex vivo platelet aggregation; assay: Ex Vivo Dog Study: ex vivo platelet aggregation; assay type: in vivo
Description: Adult mongrel dogs (8-13 kg) were anesthetized with sodium pentobarbital ([…], i.v.) and artificially respired. Arterial blood pressure and heart rate were measured using a Millar catheter-tip pressure transducer inserted in a femoral artery Another Millar transducer was placed in the left ventricle (LV) via a carotid artery to measure LV end diastolic pressure and indices of myocardial contractility. A lead electrocardiogram was recorded from limb electrodes. Catheters were placed in a femoral artery and vein to sample blood and infuse drugs, respectively. Responses were continuously monitored using a Modular Instruments data aquisition system.
Separate blood samples (1.5 ml) were withdrawn in EDTA to determine hematocrit and cell counts (platelets, RBC's and white cells). Template bleeding times were obtained from the buccal surface using a symplate incision devise and Whatman filter paper.
Aggregation of PRP was performed using a BioData aggregometer. Aggregation of whole blood used a Chronolog impedance aggregometer. PT and APTT were determined on either a BioData or ACL 3000+ coagulation analyser. Cells were counted with a Sysmex K-1000.
Compounds were solubilized in a small volume of dimethylformamide (DMF) and diluted with saline to a final concentration of 10% DMF. Compounds were administered by the intravenous route with a Harvard infusion pump. […] Data were obtained after each dose and in 30 min intervals following the end of drug administration. Oral doses were administered as aqueous solutions via syringe.

thrombus formation = assay: canine arteriovenous shunt model of thrombosis; assay type: in vivo; settings: iv infusion
[4] = system: platelets (thrombin-induced platelet aggregation); settings: L. Alig, J. Med. Chem. 1992, 35, 4393; read-out: IC50 against in vitro thrombin-induced platelet aggregation; cited from earlier work
GPIIb/IIIa [5] = target: T1, GPIIb/IIIa; settings: background statement; cited from earlier work
[6] = isolated GPIIb/IIIa, biotinylated fibrinogen, read-out: Fibrinogen Binding IC50
[7] = 50 μM, thrombin-induced aggregation of gel-filtered platelets
[8] = thrombin-induced aggregation of gel-filtered platelets

Row | Molecule | IC50 (GPIIb/IIIa [1]; [6]) [nM] | inhibition at 50 µM [2, 7] [%] | also measured
1 | O=C(O)C(O)CNC(=O)[C@@H]1CCCN(C(=O)CCC2CCNCC2)C1 (single isomer, unassigned) [Compound 11, N-3-(4-Piperidinepropionyl)-R-(-)-nipecotyl-(3-amino-2-hydroxy) propionic acid.TFA] | 4 | – | –
2 | NCCCCCC(=O)N1CCCC(C(=O)NC(CC(=O)O)c2cccnc2)C1 (stereo not drawn) [Compound 10, N-(6-Aminocaproyl)-nipecotyl-3-amino-3-(3-pyridyl)propionic acid.3TFA] | – | 85 | IC50 [2, 8]: 1600 nM; IC50 (GPIIb/IIIa [1]): 19 nM
3 | O=C(O)C[C@H](NC(=O)[C@@H]1CCCN(C(=O)CCC2CCNCC2)C1)c1ccc2c(c1)OCO2 [Compound 16, N-3-(4-Piperidinepropionyl)-R-(-)-nipecotyl-[(S)-3-amino-3-(3,4-methylenedioxyphenyl)]propionic acid.HCl] | 0.5 | – | Duration of >50% inhibition of collagen or ADP induced ex vivo platelet aggregation ([3]; intravenous, 0.1 mpk): 60 min; Duration of >50% inhibition of collagen or ADP induced ex vivo platelet aggregation ([3]; oral, 1 mpk): 60 min; Duration of >50% inhibition of collagen or ADP induced ex vivo platelet aggregation ([3]; oral, 3 mpk): > 180 min; inhibition at 50 µM [2]: 94%; IC50 [2]: 28 nM; thrombus weight vs. vehicle control (thrombus formation; 10 μg/kg/min cumulative dose): 75%; thrombus weight vs. vehicle control (thrombus formation; 30 μg/kg/min cumulative dose): 37%; thrombus weight vs. vehicle control (thrombus formation; 100 μg/kg/min cumulative dose): 12%; efficacy in canine arteriovenous shunt model of thrombosis (thrombus formation): have shown efficacy in a canine arteriovenous shunt model of thrombosis in a dose-dependent fashion; inhibition at 50 µM (GPIIb/IIIa [1]; read-out: Fibrinogen Binding % Inh. (50 μM)): 100%
4 | O=C(O)C[C@H](NC(=O)[C@@H]1CCCN(C(=O)CCC2CCNCC2)C1)c1cnc2ccccc2c1 [Compound 18, N-3-(4-Piperidinepropionyl)-R-(-)-nipecotyl-[(S)-3-amino-3-(3-quinolinyl)]propionic acid.2HCl] | 0.2 | 100 | efficacy in canine arteriovenous shunt model of thrombosis (thrombus formation): have shown efficacy in a canine arteriovenous shunt model of thrombosis in a dose-dependent fashion
5 | O=C(O)C[C@H](NC(=O)C1CCCN(CCCC2CCNCC2)C1)c1ccc2c(c1)OCO2 (stereo partly drawn) [Compound 20, N-3-(4-Piperidinepropyl)-nipecotyl-[(S)-3-amino-3-(3,4-methylenedioxyphenyl)]propionic acid.2TFA] | 0.7 | – | –
6 | O=C(O)C[C@H](NC(=O)[C@@H]1CCCN(C(=O)CCC2CCNCC2)C1)c1cccnc1 [Compound 21, N-3-(4-Piperidinepropionyl)-R-(-)-nipecotyl-[(S)-3-amino-3-(3-pyridyl)]propionic acid.2TFA] | 0.5 | 100 | IC50 [2, 8]: 60 nM
7 | COc1cccc(NC(=O)N[C@@H](CNC(=O)[C@@H]2CCCN(C(=O)CCC3CCNCC3)C2)C(=O)O)c1 [Compound 22, N-3-(4-Piperidinepropionyl)-R-(-)nipecotyl-[(S)-2-(3-methoxyanilino)carbonylamino-3-amino]propionic acid] | 0.7 | – | –
8 | O=C(N[C@@H](CNC(=O)[C@@H]1CCCN(C(=O)CCC2CCNCC2)C1)C(=O)O)OCc1ccccc1 [Compound 23, N-3-(4-Piperidinepropionyl)-R-(-)nipecotyl-[(S)-2-benzyloxycarbonylamino-3-amino]propionic acid.HCl] | 0.3 | – | –
9 | O=C(N[C@@H](CNC(=O)[C@@H]1CCCN(C(=O)CCC2CCNCC2)C1)C(=O)O)OCc1cccc(Cl)c1 [Compound 24, N-3-(4-Piperidinepropionyl)-R-(-)nipecotyl-[(S)-2-(3-chlorobenzyloxy)carbonylamino-3-amino]propionic acid.HCl] | – | 100 | –
10 | O=C(NC[C@H](NS(=O)(=O)Cc1ccccc1)C(=O)O)[C@@H]1CCCN(C(=O)CCC2CCNCC2)C1 [Compound 25, N-3-(4-Piperidinepropionyl)-R-(-)nipecotyl-[(S)-2-benzylsulfonylamino-3-amino]propionic acid.HCl] | 0.3 | – | IC50 [2, 8]: 7 nM
11 | COc1cc(NC(=O)N[C@@H](CNC(=O)[C@@H]2CCCN(C(=O)CCC3CCNCC3)C2)C(=O)O)cc(OC)c1 [Compound 26, N-3-(4-Piperidinepropionyl)-R-(-)nipecotyl-[(S)-2-(3,5-dimethoxyanilino)carbonylamino-3-amino]propionic acid.HCl] | 0.3 | – | –
12 | O=C(O)C[C@H](NC(=O)[C@@H]1CCCN(C(=O)N2CCC(C3CCNCC3)CC2)C1)c1cccnc1 [Compound 27, N-[(4,4'-Bipiperidin-1-yl-)carbonyl]-R-(-)-nipecotyl-[(S)-3-amino-3-(3-pyridyl)]propionic acid.3HCl] | 0.6 | 100 | –
13 | O=C(Nc1ccc2ccccc2c1)N[C@@H](CNC(=O)[C@@H]1CCCN(C(=O)CCC2CCNCC2)C1)C(=O)O [Compound 28, N-3-(4-Piperidinepropionyl)-R-(-)nipecotyl-[(S)-2-(2-naphthylamino)carbonylamino-3-amino]propionic acid.HCl] | 0.2 | 100 | –
14 | O=C(NC[C@@H]1NC(=O)N(Cc2ccccc2)C1=O)[C@@H]1CCCN(C(=O)CCC2CCNCC2)C1 [Compound 29, N-3-(4-Piperidinepropionyl)-R-(-)nipecotyl-aminomethyl-5-(S)-(3-N-benzyl)imidazoline-2,4-dione.HCl] | 68 | 100 | –
15 | O=C(NCCc1ccccc1)N[C@@H](CNC(=O)[C@@H]1CCCN(C(=O)CCC2CCNCC2)C1)C(=O)O [Compound 30, N-3-(4-Piperidinepropionyl)-R-(-)nipecotyl-[(S)-2-(2-phenethylamino)carbonylamino-3-amino]propionic acid.HCO2 H] | 0.8 | 100 | –
16 | Cc1ccc([C@H](CC(=O)O)NC(=O)[C@@H]2CCCN(C(=O)CCC3CCNCC3)C2)cn1 [Compound 31, N-3-(4-Piperidinepropionyl)-R-(-)nipecotyl-[(S)-3-amino-3-(6-methyl-3-pyridyl)]propionic acid.2HCl] | 0.3 | 100 | –
17 | O=C(O)C[C@H](NC(=O)[C@@H]1CCCN(C(=O)CCC2CCNCC2)C1)c1cncc(Br)c1 [Compound 32, N-3-(4-Piperidinepropionyl)-R-(-)nipecotyl-[(S)-3-amino-3-(5-bromo-3-pyridyl)]propionic acid.2HCl] | 0.4 | – | –
18 | N=CN1CCC(CCC(=O)N2CCC[C@@H](C(=O)N[C@@H](CC(=O)O)c3cccnc3)C2)CC1 [Compound 33, N-3-(4-Formamidinopiperidinepropionyl)-R-(-)nipecotyl-[(S)-3-amino-3-(3-pyridyl)]propionic acid.2HCl] | 0.7 | 100 | IC50 [2, 8]: 300 nM
19 | CN(CC(=O)c1ccc(OCC(=O)O)c(OCC(=O)O)c1)C(=O)c1ccc(C(=N)N)cc1 [Ro-438857] | – | – | IC50 [4]: 94 nM
20 | Arg-Gly-Asp [Arg-Gly-Asp (RGD)] | – | – | inhibition of fibrinogen binding to GPIIb/IIIa (GPIIb/IIIa [5]): shown to inhibit fibrinogen binding to GPIIb/IIIa
21 | HHLGGAKQAGDV [γ-chain peptide region of fibrinogen, γ400-411] | – | – | inhibition of fibrinogen binding to GPIIb/IIIa (GPIIb/IIIa [5]): shown to inhibit fibrinogen binding to GPIIb/IIIa
